# Data reported in patent US6838416B2, “Herbicidal 5-benzyloxymethyl-1,2-isoxazoline derivatives” (Korea Research Institute of Chemical Technology, priority 2000, dated 2005).
# What was measured:
# SAGPY (tuber) = assay: Assay for herbicidal activity, paddy pots: SAGPY; assay type: in vivo, Sagittaria pygmaea MTQ; settings: three weeks after application, 0 untreated control, 100 complete kill
# Procedure, shortened: (§1)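 Plants are grown in 140 cm^2 pots of paddy soil, a sandy loam of pH 6 with 1.2% organic matter.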
# ECHOR (seed) = assay: Assay for herbicidal activity, paddy pots: ECHOR; assay type: in vivo, Echinochloa crus-galli var. oryzicola; settings: three weeks after application, 0 untreated control, 100 complete kill
# Procedure, shortened: as §1
# CYPSE (tuber) = assay: Assay for herbicidal activity, paddy pots: CYPSE; assay type: in vivo, Cyperus serotinus ROTTB; settings: three weeks after application, 0 untreated control, 100 complete kill
# Procedure, shortened: as §1
# paddy weeds = assay: Greenhouse herbicidal assays, overall statements on paddy weeds; assay type: in vivo
# Description: To evaluate herbicidal activity against the paddy weeds in the paddy rice (ORYSA: Oryza sativa L.), the herbicidal activity of the compounds of the invention was compared to that of the compound No.109 (compound A) disclosed in U.S. Pat. No. 4,983,210 which has a similar structure with that of the present invention. The paddy weeds tested were ECHOR (Echinochloa crus-galli var. oryzicola), SCPJU (Scirpus juncoides ROXB), MOOVA (Monochoria vaginalis PRESL), CYPSE (Cyperus serotinus ROTTB), and SAGPY (Sagittaria pygmaea MTQ).
# The vessels employed were plastic pots having an area of 140 cm^2 and filled with a sandy loam soil containing 1.2% organic matter (pH 6). Rice seedlings at the 3-leaf stage (ORYSA: Oryza sativa L.) and pregerminated seeds of rice were transplanted at the depth of 2 cm or seeded on the soil surface, respectively. Then the seeds of ECHOR, SCPJU, and MOOVA were seeded and the tubers of CYPSE and SAGPY also planted on the soil surface in the above plastic pot, wherein the pots were watered at the depth of 3 cm just after planting.
# Two days after planting, a solution of the test compound and a non-ionic emulsifier (Tween-20) in 50% acetone, was diluted with water to a concentration of 0.016, 0.063, 0.25, 1.0, and 4.0 kg/ha, respectively and applied evenly to the test pots. […]
# ORYSA (3-leaf stage) = assay: Assay for herbicidal activity, paddy pots: phytotoxicity to transplanted rice seedlings; assay type: in vivo, Oryza sativa L.; settings: three weeks after application, 0 untreated control, 100 complete kill
# Description: (§2) To evaluate herbicidal activity against the paddy weeds in the paddy rice (ORYSA: Oryza sativa L.), the herbicidal activity of the compounds of the invention was compared to that of the compound No.109 (compound A) disclosed in U.S. Pat. […] The paddy weeds tested were ECHOR (Echinochloa crus-galli var. oryzicola), SCPJU (Scirpus juncoides ROXB), MOOVA (Monochoria vaginalis […] (Cyperus serotinus ROTTB), and SAGPY (Sagittaria pygmaea MTQ). The vessels employed were plastic pots having an area of 140 cm^2 and filled with a sandy loam soil containing 1.2% organic matter (pH 6).
# SCPJU (seed) = assay: Assay for herbicidal activity, paddy pots: SCPJU; assay type: in vivo, Scirpus juncoides ROXB; settings: three weeks after application, 0 untreated control, 100 complete kill
# Procedure, shortened: (§3)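 Compounds were tested in flooded paddy pots of 140 cm^2 filled with sandy loam soil containing 1.2% organic matter at pH 6. Crop phytotoxicity and weed control were scored in the same system.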
# ORYSA (seed) = assay: Assay for herbicidal activity, paddy pots: phytotoxicity to seeded (pregerminated) rice; assay type: in vivo, Oryza sativa L.; settings: three weeks after application, 0 untreated control, 100 complete kill
# Description: as §2
# MOOVA (seed) = assay: Assay for herbicidal activity, paddy pots: MOOVA; assay type: in vivo, Monochoria vaginalis PRESL; settings: three weeks after application, 0 untreated control, 100 complete kill
# Procedure, shortened: as §3
structure (smiles),measurement,setting,value
"CC1(COCc2c(F)cccc2F)CC(c2cccs2)=NO1 (stereo not shown) [Compound A, reference compound]","SAGPY (tuber) herbicidal activity, visual percentage grading",SAGPY (tuber); 0.016 kg/ha,0%
same,"SAGPY (tuber) herbicidal activity, visual percentage grading",SAGPY (tuber); 0.063 kg/ha,0%
same,"SAGPY (tuber) herbicidal activity, visual percentage grading",SAGPY (tuber); 0.250 kg/ha,100%
same,"SAGPY (tuber) herbicidal activity, visual percentage grading",SAGPY (tuber); 1.000 kg/ha,100%
same,"SAGPY (tuber) herbicidal activity, visual percentage grading",SAGPY (tuber); 4.000 kg/ha,100%
same,"ECHOR (seed) herbicidal activity, visual percentage grading",ECHOR (seed); 0.016 kg/ha,0%
same,"ECHOR (seed) herbicidal activity, visual percentage grading",ECHOR (seed); 0.063 kg/ha,0%
same,"ECHOR (seed) herbicidal activity, visual percentage grading",ECHOR (seed); 0.250 kg/ha,20%
same,"ECHOR (seed) herbicidal activity, visual percentage grading",ECHOR (seed); 1.000 kg/ha,100%
same,"ECHOR (seed) herbicidal activity, visual percentage grading",ECHOR (seed); 4.000 kg/ha,100%
same,"CYPSE (tuber) herbicidal activity, visual percentage grading",CYPSE (tuber); 0.016 kg/ha,0%
same,"CYPSE (tuber) herbicidal activity, visual percentage grading",CYPSE (tuber); 0.063 kg/ha,0%
same,"CYPSE (tuber) herbicidal activity, visual percentage grading",CYPSE (tuber); 0.250 kg/ha,10%
same,"CYPSE (tuber) herbicidal activity, visual percentage grading",CYPSE (tuber); 1.000 kg/ha,100%
same,"CYPSE (tuber) herbicidal activity, visual percentage grading",CYPSE (tuber); 4.000 kg/ha,100%
same,"herbicidal activity, in words",paddy weeds; at the higher doses,active
same,"herbicidal activity, in words",paddy weeds; at the lower doses,inactive
same,"ORYSA (3-leaf stage) phytotoxicity, visual percentage grading",ORYSA (3-leaf stage); 0.016 kg/ha,0%
same,"ORYSA (3-leaf stage) phytotoxicity, visual percentage grading",ORYSA (3-leaf stage); 0.063 kg/ha,0%
same,"ORYSA (3-leaf stage) phytotoxicity, visual percentage grading",ORYSA (3-leaf stage); 0.250 kg/ha,0%
same,"ORYSA (3-leaf stage) phytotoxicity, visual percentage grading",ORYSA (3-leaf stage); 1.000 kg/ha,0%
same,"ORYSA (3-leaf stage) phytotoxicity, visual percentage grading",ORYSA (3-leaf stage); 4.000 kg/ha,0%
same,"SCPJU (seed) herbicidal activity, visual percentage grading",SCPJU (seed); 0.016 kg/ha,0%
same,"SCPJU (seed) herbicidal activity, visual percentage grading",SCPJU (seed); 0.063 kg/ha,0%
same,"SCPJU (seed) herbicidal activity, visual percentage grading",SCPJU (seed); 0.250 kg/ha,10%
same,"SCPJU (seed) herbicidal activity, visual percentage grading",SCPJU (seed); 1.000 kg/ha,70%
same,"SCPJU (seed) herbicidal activity, visual percentage grading",SCPJU (seed); 4.000 kg/ha,100%
same,"ORYSA (seed) phytotoxicity, visual percentage grading",ORYSA (seed); 0.016 kg/ha,0%
same,"ORYSA (seed) phytotoxicity, visual percentage grading",ORYSA (seed); 0.063 kg/ha,0%
same,"ORYSA (seed) phytotoxicity, visual percentage grading",ORYSA (seed); 0.250 kg/ha,20%
same,"ORYSA (seed) phytotoxicity, visual percentage grading",ORYSA (seed); 1.000 kg/ha,100%
same,"ORYSA (seed) phytotoxicity, visual percentage grading",ORYSA (seed); 4.000 kg/ha,100%
same,"MOOVA (seed) herbicidal activity, visual percentage grading",MOOVA (seed); 0.016 kg/ha,0%
same,"MOOVA (seed) herbicidal activity, visual percentage grading",MOOVA (seed); 0.063 kg/ha,0%
same,"MOOVA (seed) herbicidal activity, visual percentage grading",MOOVA (seed); 0.250 kg/ha,80%
same,"MOOVA (seed) herbicidal activity, visual percentage grading",MOOVA (seed); 1.000 kg/ha,80%
same,"MOOVA (seed) herbicidal activity, visual percentage grading",MOOVA (seed); 4.000 kg/ha,100%
